Experimental findings from US20260248783A1 (ASCLETIS BIOSCIENCE CO., LTD., priority 2021, published 2026) are described below.

T1 sequence (Q9NZQ7 19-238): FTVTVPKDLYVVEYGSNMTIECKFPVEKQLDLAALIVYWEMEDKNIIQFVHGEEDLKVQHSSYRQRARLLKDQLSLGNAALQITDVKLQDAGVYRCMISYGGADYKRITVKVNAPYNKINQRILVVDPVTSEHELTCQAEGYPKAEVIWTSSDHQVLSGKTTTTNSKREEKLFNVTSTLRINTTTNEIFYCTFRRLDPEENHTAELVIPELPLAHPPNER

The test addresses T1, PD-1/PD-L1 (Homo sapiens, UniProt Q9NZQ7).
T1 construct: Recombinant human PD-L1 protein (19-238) with a Histag at the C-terminus; purchased AcroBiosystems PD1-H5229 (PD-L1); PD1-H5257 (PD-1)
Briefly: PD-1/PD-L1 Homogeneous Time-Resolved Fluorescence (HTRF) Binding Assay. Conditions: PD-1/PD-L1 HTRF activity; 3 nM PD1, 10 nM PD-L1, 25° C. How it is done:
Example 107. PD-1/PD-L1 Homogeneous Time-Resolved Fluorescence (HTRF) Binding Assay
The assays were conducted in a standard black 384-well polystyrene plate with a final volume of 20 μL. Inhibitors were first serially diluted in DMSO and then added to the plate wells before the addition of other reaction components. The final concentration of DMSO in the assay was 1%. The assays were carried out at 25° C. in the PBS buffer (pH 7.4) with 0.05% Tween-20 and 0.1% BSA. Recombinant human PD-L1 protein (19-238) with a Histag at the C-terminus was purchased from AcroBiosystems (PD1-H5229). Recombinant human PD-1 protein (25-167) with Fe tag at the C-terminus was also purchased from AcroBiosystems (PD1-H5257). PD-L1 and PD-1 proteins were diluted in the assay buffer and 10 μL was added to the plate well. Plates were centrifuged and proteins were preincubated with inhibitors for 40 minutes. The incubation was followed by the addition of 10 μL of HTRF detection buffer supplemented with Europium cryptate-labeled anti-human IgG (PerkinElmer-AD0212) specific for Fe and anti-His antibody conjugated to SureLight®—Allophycocyanin (APC, PerkinElmer-AD0059H). After centrifugation, the plate was incubated at 25° C. for 60 min. before reading on a PHERAstar FS plate reader (665 nm/620 nm ratio). Final concentrations in the assay were […], 10 nM PD-L1, 1 nM europium anti-human IgG and 20 nM anti-His-Allophycocyanin. IC50 determination was performed by fitting the curve of percent control activity versus the log of the inhibitor concentration.
The molecule `Cc1cn2nc(-c3cccc(-c4cccc(-c5cc6c(=O)n(CCN[C@@H](CN)C(=O)O)c(C)cn6n5)c4Cl)c3Cl)cc2c(=O)n1CCNC(CN)C(=O)O` (stereo in doubt) [Compound 67, (2S,2'S)-2,2′-((((2,2′-dichloro-[1,1′-biphenyl]-3,3′-diyl)bis(6-methyl-4-oxopyrazolo[1,5-a]pyrazine-2,5(4H)-diyl))bis(ethane-2,1-diyl))bis(azanediyl))bis(3-aminopropanoic acid)] had an IC50 of at least 100 nM.

`O=C1CC[C@@H](Cn2cnc3sc(-c4cccc(-c5cccc(-c6cc7c(=O)n(C[C@@H]8CCC(=O)N8)cnc7s6)c5Cl)c4Cl)cc3c2=O)N1` [Compound 2, 6,6′-(2,2′-dichloro-[1,1′-biphenyl]-3,3′-diyl)bis(3-(((S)-5-oxopyrrolidin-2-yl)methyl)thieno[2,3-d]pyrimidin-4(3H)-one)] had a half-maximal inhibitory concentration (IC50) of 10 to 100 nM.

In the case of `O=C1CCC(Cn2cnn3c(F)c(-c4cccc(-c5cccc(-c6cc7c(=O)n(CC8CCC(=O)N8)cnn7c6F)c5Cl)c4Cl)cc3c2=O)N1` (centres unmarked) [Compound 3, 6,6′-(2,2′-dichloro-[1,1′-biphenyl]-3,3′-diyl)bis(7-fluoro-3-((5-oxopyrrolidin-2-yl)methyl)pyrrolo[2,1-f][1,2,4]triazin-4(3H)-one)], the IC50 is below 10 nM.

`Cn1c(-c2cccc(-c3cccc(-c4cc5ncn(C[C@@H]6CCC(=O)N6)c(=O)c5n4C)c3Cl)c2Cl)cc2ncn(C[C@@H]3CCC(=O)N3)c(=O)c21` [Compound 4, 6,6′-(2,2′-dichloro-[1,1′-biphenyl]-3,3′-diyl)bis(5-methyl-3-(((S)-5-oxopyrrolidin-2-yl)methyl)-3,5-dihydro-4H-pyrrolo[3,2-d]pyrimidin-4-one)] yielded an IC50 of at least 100 nM.

`O=C1CC[C@@H](Cn2ccn3cc(-c4cccc(-c5cccc(-c6cc7c(=O)n(C[C@@H]8CCC(=O)N8)ccn7c6)c5Cl)c4Cl)cc3c2=O)N1` [Compound 5, 7,7′-(2,2′-dichloro-[1,1′-biphenyl]-3,3′-diyl)bis(2-(((S)-5-oxopyrrolidin-2-yl)methyl)pyrrolo[1,2-a]pyrazin-1(2H)-one)] yielded a concentration for half-maximal inhibition (IC50) of 10 to 100 nM.

The molecule `Cn1c(-c2cccc(-c3cccc(-c4nc5c(=O)n(C[C@@H]6CCC(=O)N6)ccc5n4C)c3Cl)c2Cl)nc2c(=O)n(C[C@@H]3CCC(=O)N3)ccc21` [Compound 6, 2,2′-(2,2′-dichloro-[1,1′-biphenyl]-3,3′-diyl)bis(1-methyl-5-(((S)-5-oxopyrrolidin-2-yl)methyl)-1,5-dihydro-4H-imidazo[4,5-c]pyridin-4-one)] showed an IC50 of at least 100 nM.

In turn, `O=C1CC[C@@H](Cn2ccn3nc(-c4cccc(-c5cccc(-c6cc7c(=O)n(C[C@@H]8CCC(=O)N8)ccn7n6)c5Cl)c4Cl)cc3c2=O)N1` [Compound 7, 2,2′-(2,2′-dichloro-[1,1′-biphenyl]-3,3′-diyl)bis(5-(((S)-5-oxopyrrolidin-2-yl)methyl)pyrazolo[1,5-a]pyrazin-4(5H)-one)] registered an IC50 below 10 nM.

In the case of `O=C1CC[C@@H](Cn2ccc3sc(-c4cccc(-c5cccc(-c6cc7c(=O)n(C[C@@H]8CCC(=O)N8)ccc7s6)c5Cl)c4Cl)cc3c2=O)N1` [Compound 8, 2,2′-(2,2′-dichloro-[1,1′-biphenyl]-3,3′-diyl)bis(5-(((S)-5-oxopyrrolidin-2-yl)methyl)thieno[3,2-c]pyridin-4(5H)-one)], the IC50 is 10 to 100 nM.

For `O=C1CC[C@@H](CN2CCn3cc(-c4cccc(-c5cccc(-c6cc7n(c6)CCN(C[C@@H]6CCC(=O)N6)C7=O)c5Cl)c4Cl)cc3C2=O)N1` [Compound 9, 7,7′-(2,2′-dichloro-[1,1′-biphenyl]-3,3′-diyl)bis(2-(((S)-5-oxopyrrolidin-2-yl)methyl)-3,4-dihydropyrrolo[1,2-a]pyrazin-1(2H)-one)], the concentration for half-maximal inhibition (IC50) is at least 100 nM.

Take `Cn1c(-c2cccc(-c3cccc(-c4nc5c(c(=O)n(C[C@@H]6CCC(=O)N6)c(=O)n5C)n4C)c3Cl)c2Cl)nc2c1c(=O)n(C[C@@H]1CCC(=O)N1)c(=O)n2C` [Compound 10, 8,8′-(2,2′-dichloro-[1,1′-biphenyl]-3,3′-diyl)bis(3,7-dimethyl-1-(((S)-5-oxopyrrolidin-2-yl)methyl)-3,7-dihydro-1H-purine-2,6-dione)]: the IC50 is at least 100 nM.

In turn, `O=C1CC[C@@H](Cn2ncn3cc(-c4cccc(-c5cccc(-c6cc7c(=O)n(C[C@@H]8CCC(=O)N8)ncn7c6)c5Cl)c4Cl)cc3c2=O)N1` [Compound 11, 7,7′-(2,2′-dichloro-[1,1′-biphenyl]-3,3′-diyl)bis(2-(((S)-5-oxopyrrolidin-2-yl)methyl)pyrrolo[1,2-d][1,2,4]triazin-1(2H)-one)] showed an IC50 of at least 100 nM.

Molecule `O=C1CC[C@@H](Cn2ccn3cc(-c4cccc(-c5cccc(-c6cn7ccn(C[C@@H]8CCC(=O)N8)c(=O)c7n6)c5Cl)c4Cl)nc3c2=O)N1` [Compound 12, 2,2′-(2,2′-dichloro-[1,1′-biphenyl]-3,3′-diyl)bis(7-(((S)-5-oxopyrrolidin-2-yl)methyl)imidazo[1,2-a]pyrazin-8(7H)-one)] returned an IC50 of 10 to 100 nM.

On to `O=C1CC[C@@H](Cn2ccn3c(F)c(-c4cccc(-c5cccc(-c6nc7c(=O)n(C[C@@H]8CCC(=O)N8)ccn7c6F)c5Cl)c4Cl)nc3c2=O)N1` [Compound 13, 2,2′-(2,2′-dichloro-[1,1′-biphenyl]-3,3′-diyl)bis(3-fluoro-7-(((S)-5-oxopyrrolidin-2-yl)methyl)imidazo[1,2-a]pyrazin-8(7H)-one)], for which the 50% inhibitory concentration (IC50) is at least 100 nM.

In turn, `O=C1CC[C@@H](Cn2cnc3[nH]c(-c4cccc(-c5cccc(-c6cc7c(=O)n(C[C@@H]8CCC(=O)N8)cnc7[nH]6)c5Cl)c4Cl)cc3c2=O)N1` [Compound 14, 6,6′-(2,2′-dichloro-[1,1′-biphenyl]-3,3′-diyl)bis(3-(((S)-5-oxopyrrolidin-2-yl)methyl)-3,7-dihydro-4H-pyrrolo[2,3-d]pyrimidin-4-one)] displayed an IC50 of 10 to 100 nM.

`O=C1CC[C@@H](Cn2ccn3nc(-c4cccc(-c5cccc(-c6nc7c(=O)n(C[C@@H]8CCC(=O)N8)ccn7n6)c5Cl)c4Cl)nc3c2=O)N1` [Compound 15, 2,2′-(2,2′-dichloro-[1,1′-biphenyl]-3,3′-diyl)bis(7-(((S)-5-oxopyrrolidin-2-yl)methyl)-[1,24]triazolo[1,5-a]pyrazin-8(7H)-one)] registered an IC50 below 10 nM.

Consider `O=C1CCC(Cn2cc(F)n3cc(-c4cccc(-c5cccc(-c6cc7c(=O)n(CC8CCC(=O)N8)cc(F)n7c6)c5Cl)c4Cl)cc3c2=O)N1` (centres unmarked) [Compound 16, 7,7′-(2,2′-dichloro-[1,1′-biphenyl]-3,3′-diyl)bis(4-fluoro-2-((5-oxopyrrolidin-2-yl)methyl)pyrrolo[1,2-a]pyrazin-1(2H)-one)], for which the IC50 is 10 to 100 nM.

In turn, `Cc1c(-c2cc3c(=O)n(C[C@@H]4CCC(=O)N4)cnn3c2)cccc1-c1cccc(-c2cc3c(=O)n(C[C@@H]4CCC(=O)N4)cnn3c2)c1C` [Compound 17, 6,6′-(2,2′-dimethyl-[1,1′-biphenyl]-3,3′-diyl)bis(3-(((S)-5-oxopyrrolidin-2-yl)methyl)pyrrolo[2,1-f][1,2,4]triazin-4(3H)-one)] gave a 50% inhibitory concentration (IC50) below 10 nM.

In turn, `O=C1CC(Cn2cnn3cc(-c4cccc(-c5cccc(-c6cc7c(=O)n(CC8CNC(=O)C8)cnn7c6)c5Cl)c4Cl)cc3c2=O)CN1` (centres unmarked) [Compound 18, 6,6′-(2,2′-dichloro-[1,1′-biphenyl]-3,3′-diyl)bis(3-((5-oxopyrrolidin-3-yl)methyl)pyrrolo[2,1-f][1,2,4]triazin-4(3H)-one)] had an IC50 of 10 to 100 nM.

In the case of `O=C1NCCN1CCn1cnn2cc(-c3cccc(-c4cccc(-c5cc6c(=O)n(CCN7CCNC7=O)cnn6c5)c4Cl)c3Cl)cc2c1=O` [Compound 19, 6,6′-(2,2′-dichloro-[1,1′-biphenyl]-3,3′-diyl)bis(3-(2-(2-oxoimidazolidin-1-yl)ethyl)pyrrolo[2,1-f][1,2,4]triazin-4(3H)-one)], the half-maximal inhibitory concentration (IC50) was at least 100 nM.

The molecule `O=c1c2cc(-c3cccc(-c4cccc(-c5cc6c(=O)n(CCO)cnn6c5)c4Cl)c3Cl)cn2ncn1CCO` [Compound 20, 6,6′-(2,2′-dichloro-[1,1′-biphenyl]-3,3′-diyl)bis(3-(2-hydroxyethyl)pyrrolo[2,1-f][1,2,4]triazin-4(3H)-one)] had an IC50 of at least 100 nM.

As to `O=c1c2cc(-c3cccc(-c4cccc(-c5cc6c(=O)n(CCn7cccn7)cnn6c5)c4Cl)c3Cl)cn2ncn1CCn1cccn1` [Compound 21, 6,6′-(2,2′-dichloro-[1,1′-biphenyl]-3,3′-diyl)bis(3-(2-(1H-pyrazol-1-yl)ethyl)pyrrolo[2,1-f][1,2,4]triazin-4(3H)-one)], the concentration for half-maximal inhibition (IC50) was at least 100 nM.

`O=c1c2cc(-c3cccc(-c4cccc(-c5cc6c(=O)n(CCn7cncn7)cnn6c5)c4Cl)c3Cl)cn2ncn1CCn1cncn1` [Compound 22, 6,6′-(2,2′-dichloro-[1,1′-biphenyl]-3,3′-diyl)bis(3-(2-(1H-1,2,4-triazol-1-yl)ethyl)pyrrolo[2,1-f][1,2,4]triazin-4(3H)-one)] registered an IC50 of 10 to 100 nM.

The molecule `O=C(O)Cn1cnn2cc(-c3cccc(-c4cccc(-c5cc6c(=O)n(CC(=O)O)cnn6c5)c4Cl)c3Cl)cc2c1=O` [Compound 23, 2,2′-((2,2′-dichloro-[1,1′-biphenyl]-3,3′-diyl)bis(4-oxopyrrolo[2,1-f][1,2,4]triazine-6,3(4H)-diyl))diacetic acid] gave an IC50 of at least 100 nM.
